Test results: patent US8182527B2, “Heparin barrier coating for controlled drug release” (Cordis Corporation, priority 2001, dated 2012)
One block for each compound: values may come before it.

Assays:
[1] = assay type: physicochemical; conditions: 0.02 weight percent per total basecoat solids
Description: Referring to FIG. 75, there is illustrated in graphical format, the results of the same drug screening as described above with the solution applied to a cobalt-chromium, 18 mm stent. In this test, two sets of solution samples were utilized, one with sirolimus and polymer solution containing the antioxidant and one with sirolimus and polymer solution containing no antioxidant. The antioxidant utilized was 0.02 weight percent BHT per total basecoat solids. The test was utilized to determine the percent drug content change over a time period of 0 to 12 weeks under two conditions; namely, 40° C. with 75 percent relative humidity, and ambient conditions (25° C.).

[2] = system: human coronary artery smooth muscle cells; assay: Anti-proliferative activity in synchronized cultured human coronary artery smooth muscle cells stimulated with two percent fetal bovine serum; assay type: cell-based; conditions: for effect on the anti-proliferative rapamycin dose response curve: added to cells treated with rapamycin
Description: (§1) The multiple curves represent various concentrations of topotecan ranging from zero to three hundred nanomolar concentrations.
(§2) The multiple curves represent various concentrations of etoposide ranging from zero to eight hundred nanomolar concentrations.
The multiple curves represent various concentrations of Panzem® ranging from zero to 100 micromolar concentrations.

[3] = system: human coronary artery smooth muscle cell survival; assay: MTS cytotoxicity assay; assay type: cell-based; conditions: 6.6 to 30,000.00 nanomolar tested
Description: Typically, a control is utilized to determine baseline toxicity.

[4] = system: human coronary artery smooth muscle cell proliferation; assay: In vitro cell culture study of coronary artery smooth muscle cell proliferation (trichostatin A); assay type: cell-based
Description: FIG. 51 is a graph of the inhibition of coronary artery smooth muscle cells by trichostatin A in a cell culture study.

[5] = Cell viability assay; assay type: cell-based
Description: as §1, §2

[6] = Drug concentration in liquid formulations by liquid chromatography / HPLC; assay type: physicochemical
Method: Table 8, shown below, summarizes the concentrations of the excipient, the co-solvents and the drug for four different liquid formulations in accordance with exemplary embodiments of the present invention.
As set forth above, a liquid formulation comprising 4 mg/ml of sirolimus may be achieved utilizing PEG 200 as the excipient and ethanol and water as the co-solvents. […] The high concentration of sirolimus is necessary to maintain an effective and high local concentration of sirolimus after delivery to the site. The liquid formulations are flowable at room temperature and are compatible with a number of delivery devices. Specifically, each of these formulations were successfully injected through an infusion catheter designated by the brand name CRESCENDO™ from Cordis Corporation, Miami, Fla., as described in more detail subsequently, and the EndoBionics Micro Syringe™ Infusion Catheter available from EndoBionics, Inc., San Leandros, Calif., as described in more detail above, in porcine studies.
In another exemplary embodiment, the liquid formulation of sirolimus comprises water and ethanol as co-solvents and Vitamin E TPGS as the excipient. The liquid formulation was created utilizing the following process. Two hundred milligrams of sirolimus and two grams of ethanol were added to a pre-weighed twenty milliliter scintillation vial. […]

[7] = system: human coronary artery smooth muscle cells; assay: Anti-proliferative activity in non-synchronized cultured human coronary artery smooth muscle cells stimulated with two percent fetal bovine serum; assay type: cell-based; conditions: for effect on the anti-proliferative rapamycin dose response curve: added to cells treated with rapamycin
Description: The multiple curves represent various concentrations of mycophenolic acid ranging from zero to one thousand nanomolar concentrations. […] This potentiation observed in cultured coronary artery smooth muscle cells preferably translates to an enhancement in anti-restenotic efficacy following vascular injury and a reduction in the required amount of either agent to achieve the desired anti-restenotic effect.
FIG. 58 illustrates, in graphical format, the anti-proliferative activity of cladribine in non-synchronized cultured human coronary artery smooth muscle cells stimulated with two percent fetal bovine serum.
The multiple curves represent various concentrations of cladribine ranging from zero to nine hundred nanomolar concentrations. […] As illustrated, the percent inhibition increases substantially as the dose of cladribine increases.

Compound: Cc1cc(C(C)(C)C)c(O)c(C(C)(C)C)c1 [BHT, Butylated Hydroxytoluene]
effect on drug degradation on coated stent [1]: lessens drug degradation at both 8 weeks and 12 weeks under ambient conditions

Compound: COc1cc2c(cc1O)CC[C@@H]1[C@@H]2CC[C@]2(C)[C@@H](O)CC[C@@H]12 [Panzem®, 2-methoxyestradiol]
effect on the anti-proliferative rapamycin dose response curve [2]: potentiation of rapamycin by Panzem®
anti-proliferative activity ([2]; two percent fetal bovine serum, alone): extremely effective inhibitor of human coronary artery smooth muscle cell proliferation in vitro
concentrations that do not reduce human coronary artery smooth muscle cell survival [3]: up to 30,000.00 nanomolar

Compound: CC(/C=C/C(=O)NO)=C\[C@@H](C)C(=O)c1ccc(N(C)C)cc1 [trichostatin A]
inhibition of human coronary artery smooth muscle cell proliferation [4]: completely inhibit
IC50 ([4]; human coronary artery smooth muscle cells, read-out: anti-proliferative IC50): ~6 nM

Compound: COc1cc([C@@H]2c3cc4c(cc3[C@@H](O[C@@H]3O[C@@H]5CO[C@@H](C)O[C@H]5[C@H](O)[C@H]3O)[C@H]3COC(=O)[C@H]23)OCO4)cc(OC)c1O [etoposide]
effect on the anti-proliferative rapamycin dose response curve [2]: potentiate the anti-proliferative activity of rapamycin
cytotoxicity in cell viability assay ([5]; concentrations up to ten micromolar): non-cytotoxic

Compound: CO[C@H]1C[C@@H]2CC[C@@H](C)[C@@](O)(O2)C(=O)C(=O)N2CCCC[C@H]2C(=O)O[C@H]([C@H](C)C[C@@H]2CC[C@@H](O)[C@H](OC)C2)CC(=O)[C@H](C)/C=C(\C)[C@@H](O)[C@@H](OC)C(=O)[C@H](C)C[C@H](C)/C=C/C=C/C=C/1C [rapamycin]
concentration relative to the solubility of sirolimus in water ([6]; 4 mg/ml formulation with PEG 200, ethanol and water): about four hundred to about one thousand times higher

concentration in the final solution (HPLC assay) ([6]; ethanol (less than two percent), Vitamin E TPGS and water): 15000 µg/mL
Compound: CO[C@H]1C[C@@H]2CC[C@@H](C)[C@@](O)(O2)C(=O)C(=O)N2CCCC[C@H]2C(=O)O[C@H]([C@H](C)C[C@@H]2CC[C@@H](OC(=O)C(C)(CO)CO)[C@H](OC)C2)CC(=O)[C@H](C)/C=C(\C)[C@@H](O)[C@@H](OC)C(=O)[C@H](C)C[C@H](C)/C=C/C=C/C=C/1C [CCI-779]

Compound: CC[C@@]1(O)C(=O)OCc2c1cc1n(c2=O)Cc2cc3c(CN(C)C)c(O)ccc3nc2-1 [topotecan]
effect on the anti-proliferative rapamycin dose response curve [2]: potentiate the anti-proliferative activity of rapamycin
cytotoxicity in cell viability assay ([5]; concentrations up to one micromolar): non-cytotoxic

Compound: Nc1nc(Cl)nc2c1ncn2[C@H]1C[C@H](O)[C@@H](CO)O1 [Cladribine, 2-chlorodeoxyadenosine]
effect on the anti-proliferative rapamycin dose response curve [7]: potentiate the anti-proliferative activity of rapamycin
inhibition of human coronary artery smooth muscle cell proliferation ([7]; two percent fetal bovine serum): completely inhibits

Compound: COc1c(C)c2c(c(O)c1C/C=C(\C)CCC(=O)O)C(=O)OC2 [mycophenolic acid]
effect on the anti-proliferative rapamycin dose response curve [7]: potentiates the anti-proliferative activity of rapamycin
